The values that follow come from patent publication US11530181B2, “IL-6 inhibitors and methods of treatment” (University of Florida Research Foundation, Incorporated, priority 2018, dated 2022).

For assay [1], the system named is STAT4 phosphorylation. Put plainly: Western blot, STAT4 phosphorylation in MCF7. The format is cell-based, human. The settings on record: MCF7, pre-treatment 2, 3 and 4 hours. The procedure:
FIG. 13. depicts the reduced effect on STAT1, STAT2, STAT4 and STAT6 phosphorylation by LLM418. The MCF7 cells were serum-starved overnight, then treated with LLM4 (15 μM) for 2, 3 and 4 hours. STAT1, STAT2, STAT4 and STAT6 phosphorylation were induced by INF-γ, INF-α and IL-4, respectively. The cells were harvested at 30 minutes and analyzed by western blot assays.
(§1) Cells were harvested and lysed in cold radioimmunoprecipitation assay (RIPA) lysis buffer containing proteasome inhibitor cocktail and phosphatase inhibitor cocktail. The protein concentrations were determined using the BCA Protein Assay kit. After adding the loading buffer and boiling at 95° C. for 10 minutes, equivalent amounts of proteins were loaded on and separated by SDS-PAGE, and then were transferred to PVDF membranes. Membranes were probed with primary antibodies (1:1000) against phospho-STAT3 (Tyr705), STAT3, phospho-STAT1 (Tyr701), STAT1, phospho-STAT6 (Tyr 641), STAT6, and GAPDH, respectively, and horseradish peroxidase (HRP)-conjugated secondary antibody (1:10000) (Cell Signaling Technology, Beverly, Mass.). Membranes were analyzed using Enhanced Chemiluminescence Plus reagents and either scanned with the Storm Scanner (Amersham Pharmacia Biotech, Inc., Piscataway, N.J.) or imaged with ChemiDoc MP imaging system (Bio-Rad, Hercules, Calif.). […] The cells were harvested after 30 minutes and analyzed by Western blot.

The target in assay [2] is T1, gp130 (Homo sapiens, UniProt P40189).
T1 construct: endogenous in cells; host or cells: SUM159 human breast cancer cells (lysate)
T1 sequence (P40189 23-918): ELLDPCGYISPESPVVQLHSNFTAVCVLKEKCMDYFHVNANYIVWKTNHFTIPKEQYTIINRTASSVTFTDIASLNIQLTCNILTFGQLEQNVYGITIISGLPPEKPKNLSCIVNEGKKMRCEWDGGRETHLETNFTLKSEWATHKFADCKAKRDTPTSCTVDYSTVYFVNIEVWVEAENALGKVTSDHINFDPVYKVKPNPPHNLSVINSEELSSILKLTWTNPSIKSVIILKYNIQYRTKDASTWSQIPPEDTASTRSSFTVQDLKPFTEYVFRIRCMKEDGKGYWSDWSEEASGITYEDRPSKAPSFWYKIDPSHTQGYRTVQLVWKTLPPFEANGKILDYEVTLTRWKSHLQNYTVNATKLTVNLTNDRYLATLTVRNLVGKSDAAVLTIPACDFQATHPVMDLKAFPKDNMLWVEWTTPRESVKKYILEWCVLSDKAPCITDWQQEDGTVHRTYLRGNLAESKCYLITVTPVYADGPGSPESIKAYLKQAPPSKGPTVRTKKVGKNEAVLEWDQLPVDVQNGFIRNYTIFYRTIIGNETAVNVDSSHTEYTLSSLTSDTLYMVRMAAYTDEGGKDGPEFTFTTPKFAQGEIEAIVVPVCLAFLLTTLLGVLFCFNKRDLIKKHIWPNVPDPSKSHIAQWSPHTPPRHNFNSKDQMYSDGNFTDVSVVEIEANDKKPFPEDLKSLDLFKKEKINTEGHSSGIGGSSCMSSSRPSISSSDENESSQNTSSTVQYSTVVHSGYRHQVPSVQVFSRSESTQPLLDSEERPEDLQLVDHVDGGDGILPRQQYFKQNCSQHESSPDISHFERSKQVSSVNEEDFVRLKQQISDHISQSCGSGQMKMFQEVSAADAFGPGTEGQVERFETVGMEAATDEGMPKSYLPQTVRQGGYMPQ
Put plainly: Drug Affinity Responsive Target Stability (DARTS) assay in SUM159 lysates. The format is binding. As to the method:
Human SUM159 breast cancer cells were lysed in cold radioimmunoprecipitation assay (RIPA) lysis buffer containing proteasome inhibitor cocktail and phosphatase inhibitor cocktail. Then lysates were incubated with escalating concentrations (10-1000 μM) of LLM418 or DMSO control at room temperature for 1 h. Proteolysis was followed by adding protease pronase solution at a ratio of 1 mg of pronase to 1000 mg (or 2000 mg) of lysate protein for 30 min, 20 min or 15 min at room temperature. To stop proteolysis, 4×SDS sample loading buffer was added at 1:3 ratio to each sample and boiled at 95° C. for 10 min. The resulted protein samples were separated by 8% SDS-PAGE gel and analyzed by western blotting. The DARTS assay is a method for studying the specific protein-ligand binding interactions. It is based on the principle that the target protein structure might be stabilized and become less susceptible to proteolysis by proteases upon drug binding [Lomenick B, Jung G, Wohlschlegel J, et al. Target identification using drug affinity responsive target stability (DARTS). Curr Protoc Chem Biol 2011, 3, 163-180; Lomenick B, Olsen R, Huang J. Identification of direct protein targets of small molecules. ACS Chem Biol. 2011, 6, 34-46]. It can be used to find the targeting protein of a small molecule by running SDS-gel without purifying any specific protein. […]

For assay [3], the system named is CT-1 induced STAT3 phosphorylation. Put plainly: Western blot, CT-1 induced STAT3 phosphorylation in MCF7. The format is cell-based, human. Particulars: MCF7, 15 μM, time dependent. As to the method:
as §1
MCF7 breast cancer cells were seeded in 10 cm plates (1 million cells per plate) and allowed to adhere overnight. […] The cells were harvested after 30 minutes and analyzed by western blotting.
A general note: In western blotting, separated proteins are transferred to a membrane and probed.

The test system of assay [4] is MDA-MB-231 breast cancer cell line. Put plainly: MTT cell viability assay, MDA-MB-231. The format is cell-based, human. The settings on record: Homo sapiens; MDA-MB-231 (medium IL-6), 48 h, 0% FBS medium. As to the method:
Human breast cancer cell lines MCF7, MDA-MB-231 and SUM159 were maintained in Dulbecco's modified Eagle medium (DMEM). Human pancreatic cancer cell line BxPC-3 was maintained in RPMI 1640 medium. Human pancreatic cancer cell line Capan-1 was maintained in Iscove's Modified Dulbecco's Medium (IMEM). All media were supplemented with 10% FBS and 1% penicillin/streptomycin, and cells were incubated in a humidified 37° C. incubator with 5% CO2. PE/CA-PJ49 cell line was purchased from external sources and maintained according to manufacturer's protocol.
Cell viability was evaluated by using the MTT assay in triple replicates in one experiment and repeated for three times. Cancer cells were seeded in 96-well plates at a density of 3,000 cells per well. The cells were incubated at 37° C. for a period of 24 hours. […] After incubation for 48 or 72 hours, a stock solution of MTT (0.5 mg/ml) was then added to each well containing the treated cells, followed by incubation at 37° C. for 3 h. After removal of medium, the MTT dye was dissolved with spectrophotometric grade DMSO and the absorbance was read at 570 nm. The IC50 value is determined by interpolation based on the absorbance value halfway between positive and negative controls. […]
(In general: Tetrazolium assays rely on reduction of a dye to a coloured formazan, in cell work by metabolically active cells.)

pIC50: −log10 of the molar value.

On to `O=C(Nc1ccccc1-c1ccn[nH]1)c1ccc(OCCN2CCCCC2)cc1` [LLM418, N-(2-(1H-pyrazol-5-yl)phenyl)-4-(2-(piperidin-1-yl)ethoxy)benzamide], for which the “effect on STAT4 phosphorylation” value in assay [1] is on record as “little effect”. The “abundance of gp130 compared with the no drug control” value in assay [2] (100 and 1000 μM) is given as “increased significantly”. In addition, in assay [2] (SUM159 lysates, 10-1000 μM, pronase:protein=1:2000, 15 min), the “abundance of the gp130 band (protection from proteolysis)” value is recorded as “increased with an increasing dose”.

Turning to `O=C(Nc1cc(F)ccc1-n1cccc1)c1ccc(OCCCN2CCCCC2)cc1` [LLM4, N-(5-fluoro-2-(1H-pyrrol-1-yl)phenyl)-4-(3-(piperidin-1-yl)propoxy)benzamide], the “CT-1 induced STAT3 phosphorylation” value in assay [3] is given as “minor influence”. The pIC50 in assay [4] is 6.01.

What is called pIC50 is the negative decadic logarithm of the IC50, by convention in mol/L. Read a low pIC50 as a large IC50.
